ChEMBL document CHEMBL6092169, “Development of selective heterocyclic PDE4 inhibitors for treatment of psoriasis” (Eur J Med Chem, 2024)

Assays:
RAW264.7 [1] = assay: Anti-inflammatory activity in mouse RAW264.7 cells assessed as inhibition of LPS-induced TNF-alpha production at 10 uM incubated for 24 hrs by ELISA relative to control; type: functional; design: scale not given: the % may be the effect or the level left
[2] = target: T1, 3',5'-cyclic-AMP phosphodiesterase 4D (Homo sapiens, UniProt Q08499); assay: Inhibition of full-length PDE4D2 (unknown origin) using FAM-cAMP as substrate at 1 uM preincubated with compound for 15 mins followed by substrate addition and measured after 30 mins by fluorescence polarization based IMAP assay relative to control; conditions: time 45.0 min
T1 sequence (Q08499 whole entry): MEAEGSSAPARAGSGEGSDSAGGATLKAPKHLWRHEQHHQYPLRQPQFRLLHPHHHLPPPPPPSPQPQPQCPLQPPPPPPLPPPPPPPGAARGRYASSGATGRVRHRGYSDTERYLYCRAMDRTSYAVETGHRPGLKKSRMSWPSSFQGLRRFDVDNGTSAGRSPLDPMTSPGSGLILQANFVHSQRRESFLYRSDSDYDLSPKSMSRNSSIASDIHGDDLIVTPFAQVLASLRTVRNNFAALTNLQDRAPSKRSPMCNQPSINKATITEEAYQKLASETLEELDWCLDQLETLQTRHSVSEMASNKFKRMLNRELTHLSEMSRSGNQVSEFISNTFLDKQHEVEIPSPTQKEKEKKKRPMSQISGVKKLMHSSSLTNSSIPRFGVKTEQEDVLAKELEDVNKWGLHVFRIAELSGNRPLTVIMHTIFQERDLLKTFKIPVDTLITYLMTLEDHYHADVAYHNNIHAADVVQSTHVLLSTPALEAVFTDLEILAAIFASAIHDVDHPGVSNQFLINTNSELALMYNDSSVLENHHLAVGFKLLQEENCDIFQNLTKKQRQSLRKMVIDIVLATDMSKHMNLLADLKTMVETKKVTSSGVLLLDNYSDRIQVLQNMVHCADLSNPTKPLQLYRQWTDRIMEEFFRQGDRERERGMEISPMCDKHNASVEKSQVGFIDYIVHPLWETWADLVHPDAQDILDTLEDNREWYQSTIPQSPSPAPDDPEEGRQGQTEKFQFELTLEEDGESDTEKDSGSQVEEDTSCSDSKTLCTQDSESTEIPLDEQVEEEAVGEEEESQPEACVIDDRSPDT

[3] = target: T1, 3',5'-cyclic-AMP phosphodiesterase 4D; assay: Inhibition of full-length PDE4D2 (unknown origin) using FAM-cAMP as substrate preincubated with compound for 15 mins followed by substrate addition and measured after 30 mins by fluorescence polarization based IMAP assay
RAW264.7 [4] = assay: Anti-inflammatory activity in mouse RAW264.7 cells assessed as inhibition of LPS-induced TNF-alpha production incubated for 24 hrs by ELISA; type: functional, cell-based; conditions: RAW264.7, 24 h

Structure (SMILES) | Activity (RAW264.7 [1]) | inhibition [2] | IC50 [3] | IC50 (RAW264.7 [4])
O=C(NCc1ncccn1)c1c[nH]c(-c2ccc(OC(F)F)c(OC(F)F)c2)n1 | 4.06% | 96.3% |  | 
O=C(NCc1ccccc1)c1coc(-c2ccc(OC(F)F)c(OCC3CC3)c2)n1 | 8.13% | 89.8% |  | 
O=C(O)c1c[nH]c(-c2ccc(OC(F)F)c(OCC3CC3)c2)n1 | 4.22% | 35.7% |  | 
O=C(NCc1ccc(F)cc1F)c1c[nH]c(-c2ccc(OC(F)F)c(OC(F)F)c2)n1 | 14.32% | 88.4% |  | 
O=C(NCc1ncccn1)c1coc(-c2ccc(OC(F)F)c(OCC3CC3)c2)n1 | 4.98% |  | 0.0182 µM | 
O=C(Nc1nccs1)c1coc(-c2ccc(OC(F)F)c(OCC3CC3)c2)n1 | 11.17% | 57% |  | 
O=C(Nc1ccc2ncsc2c1)c1coc(-c2ccc(OC(F)F)c(OCC3CC3)c2)n1 | 25.05% | 39.6% |  | 
O=C(NCc1ccc(F)cc1F)c1c[nH]c(-c2ccc(OC(F)F)c(OCC3CC3)c2)n1 | 5.16% |  | 0.00474 µM | 
O=C(Nc1ccccc1)c1coc(-c2ccc(OC(F)F)c(OCC3CC3)c2)n1 | 15.78% | 38.8% |  | 
O=C(NCc1c(F)cc(F)cc1F)c1coc(-c2ccc(OC(F)F)c(OCC3CC3)c2)n1 | 7.53% | 87.8% |  | 
O=C(Nc1ccccc1)c1c[nH]c(-c2ccc(OC(F)F)c(OCC3CC3)c2)n1 | 9.32% | 64.9% |  | 
Cn1ccc(NC(=O)c2c[nH]c(-c3ccc(OC(F)F)c(OCC4CC4)c3)n2)n1 | 18.46% | 58.8% |  | 
COc1cc(-c2nc(C(=O)NCc3ncccn3)c[nH]2)cc(OC)c1OC(F)F |  | 0.8% |  | 
O=C(NCC1CCOCC1)c1c[nH]c(-c2ccc(OC(F)F)c(OCC3CC3)c2)n1 | 24.03% | 93.9% |  | 
Cn1cc(NC(=O)c2c[nH]c(-c3ccc(OC(F)F)c(OCC4CC4)c3)n2)cn1 | 27.5% | 78.8% |  | 
O=C(O)c1coc(-c2ccc(OC(F)F)c(OCC3CC3)c2)n1 | 10.47% | 46.2% |  | 
O=C(Nc1nccs1)c1c[nH]c(-c2ccc(OC(F)F)c(OCC3CC3)c2)n1 |  | 74.3% |  | 59.9 µM
O=C(NCc1c(F)cccc1F)c1c[nH]c(-c2ccc(OC(F)F)c(OCC3CC3)c2)n1 | 13.88% |  | 0.0159 µM | 
O=C(NCc1ccc(F)c(F)c1)c1c[nH]c(-c2ccc(OC(F)F)c(OCC3CC3)c2)n1 | 12.03% |  | 0.0149 µM | 
